Reference: ChEMBL document CHEMBL1123630, “Stereospecificity in allergic contact dermatitis to simple substituted methylene lactone derivatives” (1987)

Key:
Type in all cases: functional
[1] = organism: Cavia porcellus; assay: Evaluated for the open epicutaneous test and no. of animals showing erythema and swelling(2) by (+)4,5-Dimethyl-3-methylene-dihydro-furan-2-one sensitization in guinea pigs
[2] = organism: Cavia porcellus; assay: Evaluated for the open epicutaneous test and no. of animals showing erythema covering the whole (1) by (-)4,5-Dimethyl-3-methylene-dihydro-furan-2-one sensitization in guinea pigs
[3] = organism: Cavia porcellus; assay: Number of positive animals showing sensitization to (+)4,5-Dimethyl-3-methylene-dihydro-furan-2-one in 8 guinea pigs was determined by open epicutaneous test for the compound
[4] = organism: Cavia porcellus; assay: Number of positive animals showing sensitization to (-)4,5-Dimethyl-3-methylene-dihydro-furan-2-one in 8 guinea pigs was determined by open epicutaneous test for the compound
[5] = organism: Cavia porcellus; assay: Mean reaction by (-)4,5-Dimethyl-3-methylene-dihydro-furan-2-one sensitization in guinea pigs was determined by open epicutaneous test fo the compound
[6] = organism: Cavia porcellus; assay: Evaluated for the open epicutaneous test and no. of animals showing erythema covering the whole (1) by (+)4,5-Dimethyl-3-methylene-dihydro-furan-2-one sensitization in guinea pigs
[7] = organism: Cavia porcellus; assay: Evaluated for the open epicutaneous test and no. of animals showing erythema covering part (0.5) by (-)4,5-Dimethyl-3-methylene-dihydro-furan-2-one sensitization in guinea pigs
[8] = organism: Cavia porcellus; assay: Evaluated for the open epicutaneous test and no. of animals showing no reaction (0) by (-)4,5-Dimethyl-3-methylene-dihydro-furan-2-one sensitization in guinea pigs
[9] = organism: Cavia porcellus; assay: Mean reaction by (+)4,5-Dimethyl-3-methylene-dihydro-furan-2-one sensitization in guinea pigs was determined by open epicutaneous test fo the compound
[10] = organism: Cavia porcellus; assay: Evaluated for the open epicutaneous test and no. of animals showing no reaction (0) by (+)4,5-Dimethyl-3-methylene-dihydro-furan-2-one sensitization in guinea pigs
[11] = organism: Cavia porcellus; assay: Evaluated for the open epicutaneous test and no. of animals showing erythema covering part (0.5) by (+)4,5-Dimethyl-3-methylene-dihydro-furan-2-one sensitization in guinea pigs
[12] = organism: Cavia porcellus; assay: Evaluated for the open epicutaneous test and no. of animals showing erythema and swelling(2) by (-)4,5-Dimethyl-3-methylene-dihydro-furan-2-one sensitization in guinea pigs
[13] = organism: Cavia porcellus; assay: Evaluated for the open epicutaneous test and no. of animals showing erythema covering the whole (1) by (-)4-Methyl-3-methylene-dihydro-furan-2-one sensitization in guinea pigs
[14] = organism: Cavia porcellus; assay: Evaluated for the open epicutaneous test and no. of animals showing erythema and swelling(2) by (+)4-Methyl-3-methylene-dihydro-furan-2-one sensitization in guinea pigs
[15] = organism: Cavia porcellus; assay: Number of positive animals showing sensitization to (+)4-Methyl-3-methylene-dihydro-furan-2-one in 6 guinea pigs was determined by open epicutaneous test for the compound
[16] = organism: Cavia porcellus; assay: Evaluated for the open epicutaneous test and no. of animals showing erythema covering part (0.5) by (+)4-Methyl-3-methylene-dihydro-furan-2-one sensitization in guinea pigs
[17] = organism: Cavia porcellus; assay: Mean reaction by (-)4-Methyl-3-methylene-dihydro-furan-2-one sensitization in guinea pigs was determined by open epicutaneous test fo the compound
[18] = organism: Cavia porcellus; assay: Evaluated for the open epicutaneous test and no. of animals showing erythema covering part (0.5) by (-)4-Methyl-3-methylene-dihydro-furan-2-one sensitization in guinea pigs
[19] = organism: Cavia porcellus; assay: Evaluated for the open epicutaneous test and no. of animals showing erythema covering the whole (1) by (+)4-Methyl-3-methylene-dihydro-furan-2-one sensitization in guinea pigs
[20] = organism: Cavia porcellus; assay: Number of positive animals showing sensitization to (-)4-Methyl-3-methylene-dihydro-furan-2-one in 6 guinea pigs was determined by open epicutaneous test for the compound
[21] = organism: Cavia porcellus; assay: Evaluated for the open epicutaneous test and no. of animals showing no reaction (0) by (+)4-Methyl-3-methylene-dihydro-furan-2-one sensitization in guinea pigs
[22] = organism: Cavia porcellus; assay: Evaluated for the open epicutaneous test and no. of animals showing erythema and swelling(2) by (-)4-Methyl-3-methylene-dihydro-furan-2-one sensitization in guinea pigs
[23] = organism: Cavia porcellus; assay: Number of positive animals showing sensitization to (+)4-Methyl-3-methylene-dihydro-furan-2-one in 3 guinea pigs was determined by open epicutaneous test for the compound
[24] = organism: Cavia porcellus; assay: Mean reaction by (+)4-Methyl-3-methylene-dihydro-furan-2-one sensitization in guinea pigs was determined by open epicutaneous test fo the compound
[25] = organism: Cavia porcellus; assay: Evaluated for the open epicutaneous test and no. of animals showing no reaction (0) by (-)4-Methyl-3-methylene-dihydro-furan-2-one sensitization in guinea pigs
[26] = organism: Cavia porcellus; assay: Number of positive animals showing sensitization to (-)4-Methyl-3-methylene-dihydro-furan-2-one in 7 guinea pigs was determined by open epicutaneous test for the compound

For `C=C1C(=O)O[C@H](C)[C@H]1C`, the No. of animals [1] was 0, the No. of animals [2] was 3 and the “No. of positive animals” value [3] was 6. For the same molecule, the “No. of positive animals” value [4] was 5, the Mean reaction [5] was 0.5 and the No. of animals [6] was 1. For the same molecule, the No. of animals [7] was 2, the No. of animals [8] was 3 and the Mean reaction [9] was 0.4. The No. of animals [10] was 2, the No. of animals [11] was 5 and the No. of animals [12] was 0.

With `C=C1C(=O)O[C@@H](C)[C@@H]1C` the No. of animals [1] was 0, the No. of animals [2] was 5 and the “No. of positive animals” value [3] was 0. For the same molecule, the “No. of positive animals” value [4] was 8, the Mean reaction [5] was 0.8 and the No. of animals [6] was 0. For the same molecule, the No. of animals [7] was 3, the No. of animals [8] was 0 and the Mean reaction [9] was 0. For the same molecule, the No. of animals [10] was 8, the No. of animals [11] was 0 and the No. of animals [12] was 0.

In the case of `C=C1C(=O)OC[C@H]1C`, the No. of animals [13] is reported as 0, the No. of animals [14] is reported as 0 and the “No. of positive animals” value [15] is reported as 6. It also gave a No. of animals [16] of 1, a Mean reaction [17] of 0 and a No. of animals [8] of 6. It also gave a Mean reaction [9] of 0.9, a No. of animals [18] of 0 and a No. of animals [19] of 5. For the same molecule, the “No. of positive animals” value [20] was 0, the No. of animals [21] was 0 and the No. of animals [22] was 0.

`C=C1C(=O)OC[C@@H]1C` was tested, and the “No. of positive animals” value [23] was 3, the No. of animals [13] was 2 and the No. of animals [14] was 0. For the same molecule, the Mean reaction [24] was 0.2, the No. of animals [16] was 3 and the Mean reaction [17] was 1.7. The No. of animals [25] was 0, the No. of animals [18] was 0 and the No. of animals [19] was 0. The No. of animals [21] was 4, the “No. of positive animals” value [26] was 7 and the No. of animals [22] was 5.
